Values quoted from earlier work as cited in patent US20190008798A1, “Coenzyme Q10 in the preventive treatment of type 2 diabetes” (Pharma Nord ApS, priority 2017, published 2019).

Legend:
[1] = system: adipose tissue; conditions: mice

COC1=C(OC)C(=O)C(C/C=C(\C)CC/C=C(\C)CC/C=C(\C)CC/C=C(\C)CC/C=C(\C)CC/C=C(\C)CC/C=C(\C)CC/C=C(\C)CC/C=C(\C)CCC=C(C)C)=C(C)C1=O [Q10, ubidecarenone]
insulin sensitivity in the adipose tissue [1]: improves insulin sensitivity
mortality in subjects with cardiac failure: decrease mortality
